The source of these data is ChEMBL document CHEMBL1201862, “PubChem BioAssay data set” (2004).

Where “and” joins values, the source holds several entries; their conditions need not be identical. Equal entries are not always repeated.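 Growth conditions: 96-well plates. Treatment: test compound, 48 hours, 5 concentrations. Analysis: linear interpolation between bracketing concentrations; unreached endpoints set to highest concentration. Abbreviation: GI50, concentration required for 50% inhibition of growth.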 Calls of active or inactive are those of the source. Cut-off read from the data, not from the text of the source: active = GI50 up to about 1.1 µM and inactive = higher. Bounds are passed on as bounds.

Test systems include SK-MEL-28; 786-0; NCI-H23; DU-145; UO-31; SNB-19; SR; RPMI-8226; NCI-H460; SF-295; CCRF-CEM; U-251; BT-549; SF-268; Hs-578T; A549; MDA-N; MDA-MB-231; A498; SK-MEL-2.
Common to all, as to test: growth of human tumour cells (NCI), 48 h

For the compound `Cc1cc(C)n(-c2nc(C)c(CCO)c(=O)[nH]2)n1`, the GI50 in the experiment on SK-MEL-28, in the experiment with 786-0, in the experiment on NCI-H23, in the experiment with DU-145, in the experiment with UO-31 and in the experiment on SNB-19 was > 100 µM (inactive) in each case. For the same compound, the GI50 in the experiment with SR, in the experiment with RPMI-8226, in the experiment with NCI-H460, in the experiment on SF-295, in the experiment with CCRF-CEM and in the experiment on U-251 was > 100 µM (inactive) throughout. Further, the GI50 with BT-549, with SF-268, with Hs-578T, with A549, in the experiment with MDA-N and in the experiment on MDA-MB-231 was > 100 µM (inactive) throughout.
Turning to `CN(C(=O)C12C3(C(=O)O)C4C5(C(=O)O)C3C1(C(=O)O)C5C42C(=O)O)C(C)(C)C` (stereo not given), the GI50 in the experiment on SK-MEL-28, in the experiment on 786-0, in the experiment on NCI-H23, with DU-145, with A498 and in the experiment with UO-31 was > 100 µM (inactive) each time. Besides, the GI50 in the experiment with SNB-19, in the experiment on SR, in the experiment with NCI-H460, in the experiment on SF-295, in the experiment with CCRF-CEM and with U-251 was > 100 µM (inactive) in each case. The GI50 in the experiment with BT-549, in the experiment with SF-268, in the experiment with Hs-578T, in the experiment with A549, with MDA-N and in the experiment with SK-MEL-2 was > 100 µM (inactive) throughout. Further, the GI50 with MDA-MB-231 is > 100 µM (inactive).
With `O=S(=O)(Nc1nc2ccccc2nc1Nc1cccc2ccccc12)c1ccccc1`, the GI50 with SK-MEL-28 was 25.9 µM (inactive); with 786-0 it was 17 µM (inactive); with NCI-H23 it was 5.53 µM (inactive); in the experiment on DU-145, > 100 µM (inactive); in the experiment on UO-31, 2.43 µM (inactive); with SNB-19, 20.1 µM (inactive). Further, the GI50 with SR was > 100 µM (inactive); in the experiment on RPMI-8226 it was 2.73 µM (inactive); in the experiment with NCI-H460, 4.41 µM (inactive); in the experiment on SF-295, 6.17 µM (inactive); with U-251, 5.52 µM (inactive); in the experiment on BT-549 it was 10.4 µM (inactive). For the same compound, the GI50 was 26.5 µM (inactive) with SF-268; 21.1 µM (inactive) with Hs-578T; 7.35 µM (inactive) with A549; > 100 µM (inactive) in the experiment with MDA-N; 18.9 µM (inactive) in the experiment with SK-MEL-2; 13.6 µM (inactive) with MDA-MB-231.
For the compound `COCC1OC(Sc2ccccc2)C(O)C(OC)C1OC` (stereo not given), the GI50 in the experiment with SK-MEL-28, in the experiment with 786-0, with NCI-H23, with DU-145, with UO-31 and in the experiment on SNB-19 was > 100 µM (inactive) each time. In addition, the GI50 was > 100 µM (inactive) with SR; > 100 µM (inactive) with NCI-H460; > 100 µM (inactive) with SF-295; > 100 µM (inactive) and 52.4 µM (inactive) with CCRF-CEM; > 100 µM (inactive) with U-251; > 100 µM (inactive) in the experiment on BT-549. Moreover, the GI50 in the experiment on SF-268, in the experiment with Hs-578T, with A549, with MDA-N, in the experiment on SK-MEL-2 and with MDA-MB-231 was > 100 µM (inactive) in each case.
With `CN(C)CCNc1nc(-c2ccc3ccccc3c2)nc2[nH]cnc12`, the GI50 was 13.6 µM (inactive) with SK-MEL-28; 10 µM (inactive) in the experiment with 786-0; 11.7 µM (inactive) with NCI-H23; 10.6 µM (inactive) in the experiment with DU-145; 3.03 µM (inactive) in the experiment on UO-31; 14 µM (inactive) in the experiment on SNB-19. In addition, the GI50 is 2.88 µM (inactive) in the experiment on SR; 22.2 µM (inactive) in the experiment with RPMI-8226; 3.66 µM (inactive) in the experiment with NCI-H460; 13.7 µM (inactive) with SF-295; 9.27 µM (inactive) with CCRF-CEM; 13.1 µM (inactive) with U-251. Also, the GI50 in the experiment on BT-549 is 11.2 µM (inactive); with SF-268 it was 8.22 µM (inactive); with Hs-578T it was 5.18 µM (inactive); in the experiment on A549 it was 12.5 µM (inactive); in the experiment with MDA-N, 10.7 µM (inactive); in the experiment on SK-MEL-2, 14.6 µM (inactive). In addition, in the experiment on MDA-MB-231, the GI50 was 11.2 µM (inactive).
With `CCOC(=O)C(Cc1ccccc1)(Cc1ccc(O)cn1)NC(=O)c1ccccc1` (stereo not given), the GI50 in the experiment with SK-MEL-28 is 36.5 µM (inactive); in the experiment with 786-0, 24.9 µM (inactive); in the experiment with NCI-H23, 32.8 µM (inactive); in the experiment on DU-145 it was 27.5 µM (inactive); in the experiment on UO-31, 29.6 µM (inactive); with SNB-19, 32 µM (inactive). Moreover, the GI50 in the experiment with SR is 6.56 µM (inactive); in the experiment with RPMI-8226, 25.9 µM (inactive); in the experiment with NCI-H460, 27.4 µM (inactive); with SF-295, 27.3 µM (inactive); in the experiment on CCRF-CEM, 7.03 µM (inactive); in the experiment with U-251 it was 21.7 µM (inactive). The GI50 with BT-549 was 30.1 µM (inactive); with SF-268 it was 17.7 µM (inactive); in the experiment on Hs-578T it was 16.3 µM (inactive); in the experiment on A549, 27.2 µM (inactive); in the experiment on MDA-N it was 6.27 µM (inactive); with SK-MEL-2, 20.2 µM (inactive). For the same compound, the GI50 in the experiment on MDA-MB-231 is 28.1 µM (inactive).
On to `CCN(CC)Cc1cc(Nc2ccnc3ccc4c(nnn4C)c23)ccc1O`, for which the GI50 was 3.98 µM (inactive) in the experiment on SK-MEL-28; 7.14 µM (inactive) in the experiment on 786-0; 11.5 µM (inactive) with NCI-H23; 13.3 µM (inactive) with DU-145; 6.62 µM (inactive) with UO-31; 5.55 µM (inactive) in the experiment on SNB-19. For the same compound, the GI50 with SR was 4.13 µM (inactive); in the experiment with NCI-H460, 3.42 µM (inactive); in the experiment on SF-295, 12.7 µM (inactive); in the experiment on CCRF-CEM it was 5.06 µM (inactive); in the experiment on BT-549, 18.8 µM (inactive); with SF-268 it was 10.2 µM (inactive). The GI50 with Hs-578T was 15.5 µM (inactive); in the experiment with A549 it was 12.2 µM (inactive); in the experiment with MDA-N, 11.5 µM (inactive); with SK-MEL-2, 16.1 µM (inactive); with MDA-MB-231, 17.2 µM (inactive).
For `COc1cccc2c1C(=O)c1c(O)c3c(c(O)c1C2=O)CC(O)(C(O)CO)CC3OC1CC2C(OC3COCC(C#N)N32)C(C)O1` (stereo not given), the GI50 with SK-MEL-28, in the experiment with 786-0, with NCI-H23, in the experiment with DU-145, with A498 and in the experiment on UO-31 was < 0.01 µM (active) in each case. Also, the GI50 in the experiment with SNB-19, in the experiment on SR, with NCI-H460, in the experiment on SF-295, with CCRF-CEM and in the experiment on U-251 was < 0.01 µM (active) each time. Also, the GI50 in the experiment on BT-549, in the experiment with SF-268, in the experiment with Hs-578T, in the experiment on A549, in the experiment on MDA-N and in the experiment on SK-MEL-2 was < 0.01 µM (active) each time. For the same compound, the GI50 with MDA-MB-231 is < 0.01 µM (active).
With `C=C(C)C1CCC2(CO)C(O)CC3(C)C(CCC4C5(C)CCC(O)C(C)(C)C5CCC43C)C12` (stereo not given), the GI50 was 10.4 µM (inactive) in the experiment on SK-MEL-28; 8.09 µM (inactive) in the experiment on 786-0; > 10 µM (inactive) with NCI-H23; 35.6 µM (inactive) in the experiment on DU-145; 10.9 µM (inactive) in the experiment on A498; 3.82 µM (inactive) in the experiment with UO-31. Also, the GI50 in the experiment on SNB-19 was 5.36 µM (inactive); in the experiment on SR, 42.8 µM (inactive); with NCI-H460, 11.8 µM (inactive); with SF-295 it was 2.84 µM (inactive); with CCRF-CEM, 50 µM (inactive); in the experiment on U-251, 2.81 µM (inactive). For the same compound, the GI50 is 11.6 µM (inactive) in the experiment on BT-549; 8.36 µM (inactive) in the experiment with SF-268; 7.76 µM (inactive) in the experiment on Hs-578T; 10.6 µM (inactive) in the experiment on A549; 12.1 µM (inactive) with MDA-N; 10.3 µM (inactive) in the experiment on SK-MEL-2. Further, the GI50 in the experiment with MDA-MB-231 was 12.7 µM (inactive).
In the case of `COc1ccc(-c2cc(=O)c3c(O)cc(C)cc3o2)cc1OC`, the GI50 in the experiment with SK-MEL-28, in the experiment on 786-0, with NCI-H23, in the experiment on DU-145, in the experiment with UO-31 and in the experiment with SNB-19 was > 100 µM (inactive) in each case. The GI50 with SR, in the experiment with RPMI-8226, in the experiment with NCI-H460, with SF-295, in the experiment with CCRF-CEM and in the experiment on U-251 was > 100 µM (inactive) each time. Moreover, the GI50 in the experiment on BT-549, in the experiment with SF-268, in the experiment on Hs-578T, in the experiment on A549, in the experiment with MDA-N and in the experiment with SK-MEL-2 was > 100 µM (inactive) throughout. Further, in the experiment on MDA-MB-231, the GI50 was > 100 µM (inactive).
